In US20180353501A1 (Arvinas, Inc., priority 2017, published 2018):

Target: T1, FLAG-p38α (Homo sapiens, UniProt Q16539)
T1 construct: expressed in transfected cells; host or cells: HeLa
Test: Ubiquitination assay, HeLa cells co-transfected with HA-Ub and FLAG-p38α
Assay type: cell-based
Conditions: 500 nM, 1 hour
Method: FIGS. 14A, 14B, and 14C. p38α selectivity is discriminated by ternary complex formation. (A) Only p38α incubated in the presence of exemplary compound 50 can be immunoprecipitated with GST-tagged VHL/EloB/EloC (VBC). Immobilized VBC was used as a bait to trap purified p38α in the presence of vehicle (DMSO), compound 50, or compound 46 (represented in micromolar concentrations). The rightmost lane represents a 1:25 dilution of initial input protein used in each pull-down. (B) Proximity-based AlphaLISA assay detects significant p38α:compound 50:VHL ternary complex, but no p38α:compound 46:VHL ternary complex. His-p38α and GST-VBC were incubated in the presence of increasing concentrations of compound 50 and compound 46 and the extent of ternary complex formation was assessed by excitation with incident light with 1=680 nm and capture of the emission light at 1=615 nm. Error bars represent the SD from quadruplicate experiments. (C) Only exemplary compound 50 ubiquitinates FLAG-p38α in HeLa cells. […] FLAGimmunoprecipitated lysates were separated by SDS-PAGE and assessed via western blots detecting HA (Ub). […]
HeLa cells (2×10^6) were seeded into 10 cm dishes and allowed to adhere overnight. […] Lysates were spun down at 14,000×g at 4° C. for 20 minutes and protein content was measured by Pierce BCA Protein Assay (ThermoFisher Scientific). […]

T1 sequence (Q16539 whole entry): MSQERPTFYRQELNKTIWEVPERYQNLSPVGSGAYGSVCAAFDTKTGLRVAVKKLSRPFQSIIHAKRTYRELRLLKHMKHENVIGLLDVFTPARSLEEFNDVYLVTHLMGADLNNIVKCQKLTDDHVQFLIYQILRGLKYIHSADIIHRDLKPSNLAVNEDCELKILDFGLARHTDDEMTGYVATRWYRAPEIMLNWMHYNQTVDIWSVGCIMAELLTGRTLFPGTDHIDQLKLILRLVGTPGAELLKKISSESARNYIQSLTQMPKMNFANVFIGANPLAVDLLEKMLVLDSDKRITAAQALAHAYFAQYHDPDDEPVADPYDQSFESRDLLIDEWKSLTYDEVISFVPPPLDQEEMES

| SMILES | ubiquitination of FLAG-p38α |
| --- | --- |
| COc1cc2c(Oc3ccc(NC(=O)C4(C(=O)Nc5ccc(F)cc5)CC4)cc3F)ccnc2cc1OCCOCCOCCOc1cc(-c2scnc2C)ccc1CNC(=O)[C@@H]1C[C@@H](O)CN1C(=O)[C@H](C(C)C)N1Cc2ccccc2C1=O [compound 46] | this effect was not seen |
| COc1cc2c(Oc3ccc(NC(=O)C4(C(=O)Nc5ccc(F)cc5)CC4)cc3F)ccnc2cc1OCCCCOCCCCOCC(=O)N[C@H](C(=O)N1C[C@H](O)C[C@H]1C(=O)NCc1ccc(-c2scnc2C)cc1)C(C)(C)C [compound 50, N-(3-fluoro-4-((7-(4-(4-(2-(((S)-1-((2S,4R)-4-hydroxy-2-((4-(4-methylthiazol-5-yl)benzyl)carbamoyl)pyrrolidin-1-yl)-3,3-dimethyl-1-oxobutan-2-yl)amino)-2-oxoethoxy)butoxy)buto-xy)-6-methoxyquinolin-4-yl)oxy)phenyl)-N-(4-fluorophenyl)cyclopropane-1,1-dicarboxa-mide] | substantial ubiquitination |
